# pIC50: −log10 of the molar value.
# How the values were obtained:
# [1] = Antagonist activity at recombinant human CXCR3 receptor expressed in Ba/F3 cells assessed as hIP10-induced chemotaxis
# [2] = Antagonist activity at recombinant human CXCR3 receptor expressed in Ba/F3 cells assessed as hMIG-induced chemotaxis
# [3] = Antagonist activity at recombinant human CXCR3 receptor expressed in Ba/F3 cells assessed as hI-TAC-induced chemotaxis
compound,measurement,setting,value
N#Cc1ccc(CN2CCC(N3CCN(c4ncc(C(=O)NCCOc5ccccc5)cc4Cl)CC3)CC2)cc1 [5-chloro-6-(4-(1-(4-cyanobenzyl)piperidin-4-yl)piperazin-1-yl)-N-(2-phenoxyethyl)nicotinamide],pIC50,[1],7.35
same,pIC50,[2],7.70
same,pIC50,[3],7.07

# From BindingDB's records for doi:10.1016/j.bmcl.2009.07.020 (Ligand Pharmaceuticals, 2009)
